Where a name gives a salt, the structure may show the parent alone. Starred links: 1 amine or outer side, 2 acyl side, 3 side chain; linkers in the order of their positions; H or OH if unused. Positions of bridges follow the written chain, without caps; N, C: chain ends. Non-standard residues stand in square brackets, D forms with d. Residues, ends and D or L forms follow the SMILES beside them. Chains are numbered I, II in the order given. Actinocin(9to1) = Cc1c2oc3c(C)ccc(C(=O)[*:1])c3nc-2c(C(=O)[*:2])c(N)c1=O; NMeV = CN[C@H](C(=O)O)C(C)C; Sar = CNCC(=O)O
Tests used:
thymidylate synthase [1] = assay: Western blot of TS protein in PC3 cells; type: cell-based, Human
Description: (§1) Human prostate cancer PC3 cells (American Type Culture Collection, Rockville, Md.) were maintained in RPMI-1640 (Life Technologies, Inc., Gaithersburg, Md.) supplemented with 10% FBS (HyClone Laboratories, Logan, Utah) at 37° C. in 5% CO2. Methionine restriction experiments were performed in methionine-free RPMI-1640 (Life Technologies, Inc.) supplemented with 10% FBS and 100 μM Homocysteine (Sigma, St. Louis). Folate restriction experiments were performed in folate-free RPMI-1640 medium (Life Technologies, Inc.) supplemented with 10% FBS. Primary culture prostate epithelial cells (PrEC) were purchased from BioWhittaker, Inc. and Clonetics Products (Walkersville, Md.). PrEC was maintained in the prostate epithelial basal medium and methionine restriction was performed in prostate epithelial cell labeling medium without methionine supplemented with 100 μM homocysteine, which were obtained from the company.
Aliquots of samples with 50 μg of protein, determined by the Bradford assay (BioRad, Hercules, Calif.), were mixed with loading buffer (final concentrations of 62.5 mM Tris-HCl (pH 6.8), 2.3% SDS, 100 mM dithiothreitol, and 0.005% bromophenol blue), boiled, fractionated in a 10% SDS-PAGE, and transferred onto a 0.45-μm nitrocellulose membrane by electroblotting (BioRad). […]

thymidylate synthase [2] = assay: Thymidylate synthase (TS) assay in PC-3 cells; type: cell-based, Human; details: PC3 cells, within 8 hours
Description: as §1
TS assay was performed as previously described (24). Briefly, 25 μl of cell extract containing 50 μg protein, 5 μl 6.5 mM 5,10-CH2-THF, and 10 μl of Tris.HCl buffer were combined at room temperature. […] After centrifugation, 150 μl of the supernatant were counted by liquid scintillation. […]

PC-3 cells [3] = assay: HPLC analysis of nucleotide levels; type: cell-based, Human; details: positive control for TS inhibition
Description: Cells were washed with phosphate buffered saline (PBS), trypsinized, washed again with PBS, counted, and pelleted. 5×10^5 cells from each sample were mixed with 10 μL 0.6 M trichloroacetic acid. The lysate was incubated at 4° C. for 30 minutes. After centrifugation, the acidic supernatant was transferred to a microcentrifuge tube. An equal volume of ice cold 80% 1,1,2-trichlorotrifluoroethane and 20% tri-n-octylamine was added to the lysate. The mixture was vortexed for 15 seconds and then centrifuged at 14000 g at 4° C. for 5 minutes. The aqueous supernatant was removed and centrifuged at 14000 g at 4° C. for 5 minutes. Samples were stored at −70° C. until use.used.
Clromatographic analyses were performed with a Waters 625 LC System (Waters Corporation, Milford, Mass., USA) consisting of a Waters 625 Fluid Handling Unit with a Rheodyne 9125-080 Manual Injector and 20 μL sample loop, 625E Powerline Controller, and 484 Tunable UV Detector. […]
A series of standards containing varying amounts of dUMP and dTTP ranging from […] was analyzed using the above methodology. The different quantities and their correlating absorption areas existed in a linear relationship. […] This linear equation was used to calculate the quantity of dUMP or dTTP represented by the absorption peaks in the chromatograms generated from our experimental samples.

[4] = cited from earlier work
GBM at recurrence = details: single agent, cited from earlier work
Yoshida sarcoma = details: coadministered with methionine depleted diet, 1.0 mg/kg/day on days 2, 4, 6; cited from earlier work
multiple myeloma = details: oral administration; cited from earlier work
[5] = system: human breast carcinoma (MX-t) cell line; details: combined with methionine depletion; cited from earlier work
Hela cells = assay: Western blot of caspases, BID, Bcl-2, Hela
PC-3 cells [6] = assay: Western blot of caspases, BID, Bcl-2, PC-3; type: cell-based, Human
[7] = system: Hodgkin's Disease and testicular tumors; details: in vivo; cited from earlier work

O=c1[nH]cc(F)c(=O)[nH]1 [5-FU, 5-fluorouracil]
TS protein accumulation in response to 5-FU (thymidylate synthase [1]; concurrent methionine restriction): largely abrogated | TS protein level (thymidylate synthase [1]; western blot): dramatically increased | inhibition of TS activity (thymidylate synthase [2]): 95% | dUMP/dTTP ratio (PC-3 cells [3]): dramatic increase

Cc1c2oc3c(C)ccc(C(=O)N[C@@H]4C(=O)N[C@H](C(C)C)C(=O)N5CCC[C@H]5C(=O)N(C)CC(=O)N(C)[C@@H](C(C)C)C(=O)O[C@@H]4C)c3nc-2c(C(=O)N[C@@H]2C(=O)N[C@H](C(C)C)C(=O)N3CCC[C@H]3C(=O)N(C)CC(=O)N(C)[C@@H](C(C)C)C(=O)O[C@@H]2C)c(N)c1=O [Actinomycin D] (I: T[dV]P[Sar][NMeV] / II: T[dV]P[Sar][NMeV]; ester I:1-I:C, II:1-II:C; linker I:N-II:N via Actinocin(9to1))
fraction of the dose excreted intact into the bile ([4]; in vivo): Half

O=NN(CCCl)C(=O)NCCCl [Carmustine, 1,3bis (2-chloroethyl)-1-nitrosourea]
Response rate (responders plus stable disease) (GBM at recurrence; Berger et al., 1996): 29% | median time to progression (GBM at recurrence): 22 weeks

COc1cccc2c1C(=O)c1c(O)c3c(c(O)c1C2=O)C[C@@](O)(C(=O)CO)C[C@@H]3O[C@H]1C[C@H](N)[C@H](O)[C@H](C)O1 [Doxorubicin, 5,12-Naphthacenedione, (8s-cis)-10-[(3-amino-2,3,6-trideoxy-a-L-lyxo-hexopyranosyl)oxy]-7,8,9,10-tetrahydro-6,8,11-trihydroxy-8-(hydroxyacetyl)-1-methoxy-hydrochloride]
effectiveness (reduced tumor weight, increased survivability) (Yoshida sarcoma): enhanced effectiveness

O=NN(CCCl)C(=O)NC1CCCCC1 [Lomustine, 1-(2-chloro-ethyl)-3-cyclohexyl-1 nitrosourea]
fraction of radioactivity excreted as degradation products ([4]; oral, 30 mg/m^2 to 100 mg/m^2, within 24 hours): about half

N[C@@H](Cc1ccc(N(CCCl)CCCl)cc1)C(=O)O [Melphalan, 4-[bis(2-chloroethyl)amino]-L-phenylalanine]
fraction of patients with favorable response (multiple myeloma): one third to one half

N.N.[Cl][Pt][Cl] [cisplatin, Cisplatin]
Treated tumor growth, % of growth in control mice tumors [5]: 32%

CN[C@@H]1C[C@H]2O[C@@](C)([C@@H]1OC)n1c3ccccc3c3c4c(c5c6ccccc6n2c5c31)C(=O)NC4 [staurosporine]
active (cleaved) form of caspases by western blot (Hela cells): detectable

CC(=O)O[C@H]1C(=O)[C@@]2(C)[C@H]([C@H](OC(=O)c3ccccc3)[C@]3(O)C[C@H](OC(=O)[C@H](O)[C@@H](NC(=O)c4ccccc4)c4ccccc4)C(C)=C1C3(C)C)[C@]1(OC(C)=O)CO[C@@H]1C[C@@H]2O [taxol, Taxol]
Bcl-2 phosphorylation (upward shift on western blot) (PC-3 cells [6]): phosphorylated | Bcl-2 phosphorylation (upward shift on western blot) (Hela cells): phosphorylated

Bleomycin
time until improvement is noted [7]: ≤ 2 weeks
